{
  "source": "patent US20150204850A1",
  "about": "“PRODUCTION OF BETA-CELLS” (Max-Planck-Gesellschaft zur Förderung der. Wissenschaften …, priority 2009, published 2015)",
  "key": {"β-cells": {"tested_on": "β-cells", "experiment": "STZ-mediated diabetes induction (β-cell depletion)", "format": "in vivo, mouse", "details": "mice, STZ 200 mg/kg intraperitoneally, single dose", "from_the_text": "We reasoned that such cells might be capable of replacing lost β-cells in diabetic mice. […] A higher mortality rate was found among animals older than 4 weeks, as compared to younger mice. It should be noticed that these animals were already hyperglycemic and weakened prior to STZ injection due to a combined insulin insensitivity and β-cell failure to optimally respond to a glucose challenge (FIG. 24). […] Ten days post-injection, only few insulin-producing cells were detected (FIG. 7F-G). […]\nWe reasoned that the continuous β-cell neogenesis observed in double-transgenic animals might be able to rescue experimentally-induced diabetes. Therefore, the function of the newly formed β-cells was assessed in diabetic mice with more than 95% β-cell loss following STZ treatment. […] Also under these conditions, clusters of glucagon^+ cells were detected at one pole of the islets, adjacent to duct structures, such cells subsequently adopting a β-cell phenotype.\nTo assess the effects of glucagon on islet size, mice were injected intraperitoneally twice daily (every 12h) with 5 μg of glucagon and sacrificed after 3 weeks of treatment. […] Lastly, BrdU was injected intraperitoneally (200 μl of 100 μl/ml) and was detected by immunohistochemistry (Invitrogen)."}, "POE::Glucre β-cells": {"tested_on": "POE::Glucre β-cells", "experiment": "Arginine and liraglutide tolerance tests", "format": "in vivo, mouse", "details": "10-week old POE::Glucre; arginine 5 mg intravenously; lower than in younger animals"}, "POE::Glucre pancreata [1]": {"tested_on": "POE::Glucre pancreata", "experiment": "Real time RT-PCR of selected transcripts in pancreata of POE::Glucre mice supplemented with glucagon", "format": "in vivo, mouse", "details": "6 week old POE::Glucre + glucagon for 3 weeks; WT/POE pancreata set at 100%", "method": "(§1) To assess the effects of glucagon on islet size, mice were injected intraperitoneally twice daily (every 12h) with 5 μg of glucagon and sacrificed after 3 weeks of treatment. For STZ-mediated diabetes induction, a freshly prepared 50 mg/ml solution in 0.1 mol/l sodium citrate, pH 4.5 was injected intraperitoneally (200 mg/kg). Lentivirus production and injection were performed as described previously (Xu et al., 2008). Lastly, BrdU was injected intraperitoneally (200 μl of 100 μl/ml) and was detected by immunohistochemistry (Invitrogen).\nRNA isolation (RNAeasy, Qiagen) and cDNA synthesis (Supercript choice system, Invitrogen) were performed according to the manufacturer's instructions. cDNA synthesis for analyses aiming to detect Pax4 transcripts was performed using a mixture of eight Pax4-derived (and β-actin-derived) antisense oligonucleotides instead of the provided oligo-dT primers (FIG. 13B).\nQuantitative RT-PCR were carried out using the QuantiTect SYBR Green RT-PCR Kit (Qiagen) and validated primers (Qiagen) according to the manufacturer's instructions. The PCR reactions and detection were performed on a Mastercycler® ep realplex cycler using GAPDH and HPRT1 as internal controls for normalization purposes.\nThe expression of the indicated genes was assayed in pancreatic tissues of POE::Glucre, POE::Glucre supplemented with glucagon, and glucagon-receptor mutant (GluR-KO) mice using age-matched tissues of WT and POE pancreata as reference (values set at 100%). POE::Glucre, but also GluR-KO pancreata display increased contents of Ngn3 and Reg3b transcripts. Additionally, an augmentation in β-cell-specific transcripts is outlined in POE::Glucre, whereas the expression of the α-cell marker genes is reduced Importantly, concomitantly with a significant decrease in Ngn3 and Reg3b transcript contents, a reduction in insulin- and glucagon-producing cell numbers (and associated marker genes) is evidenced in POE::Glucre animals supplemented with glucagon. All values are statistically significant (P<0.05, n>2) versus POE/WT."}, "POE::Glucre pancreata [2]": {"tested_on": "POE::Glucre pancreata", "experiment": "Immunohistochemical cell counts and islet size in pancreata of mice supplemented with glucagon", "format": "in vivo, mouse", "method": "We therefore hypothesized that the latter might be driven by the hypoglucagonemia resulting from the α- to β-cell conversion. To test this theory, we injected 3-week-old POE::Pdx1Cre, POE::Glucre, POE::Pax6cre, and control animals twice daily with glucagon during three weeks.\nas §1\nTissues were fixed in 4% PFA overnight at 4° C., embedded in paraffin and 8-μm sections applied to slides. These sections were assayed as described previously (Collombat et al. 2003). In order to perform co-immunofluorescence, the GFP signal was bleached when necessary, as described (Collombat et al., 2007). The primary antibodies used were the following: mouse monoclonal anti-insulin, anti-glucagon ( 1/1000 —Sigma), anti-Ngn3 ( 1/2000—1F25A1B3, BCBC Antibody Core), anti-c-Myc ( 1/100 —Abcam); guinea pig anti-insulin, anti-glucagon ( 1/1000—Sigma); rabbit anti-somatostatin ( 1/600—Dako), anti-PP ( 1/200—Dako), anti-Nkx6.1 ( 1/3000), anti-Nkx2.2 ( 1/1000—kindly provided by T. Jessell), anti-Pax6 ( 1/500 Chemicon), anti-Pax4 ( 1/500), and anti-Arx ( 1/1000); chicken anti-β-galactosidase ( 1/500 Biozol); goat anti-Ngn3 ( 1/1000—kindly provided by M. Sander). The secondary antibodies ( 1/1000—Molecular Probes) used were: 594-alexa anti-mouse; 488-alexa anti-mouse; 594-alexa anti-rabbit; 488-alexa anti-rabbit; 594-alexa anti-guinea pig; 488-alexa anti-guinea pig. Pictures were processed using confocal microscopy. For quantification purpose, stained cells were counted manually on every tenth section and the count reported to the pancreatic area estimated in silico.\nThe counts in cells positive for the indicated genes are reported per square centimetre of pancreatic tissues of POE::Glucre, POE::Glucre supplemented with glucagon, and glucagon-receptor mutant (GluR-KO) mice using age-matched tissues of WT/POE pancreata as reference. It is worth noticing that, in animals ectopically expressing Pax4 in glucagon expression domains or in GluR-KO mice, Ngn3-producing cells reemerge (note for the latter that due to the bias introduced by the high background, this count should be considered as indicative). […] In the latter case, a concomitant decrease in BrdU-labelled proliferating cell numbers is highlighted (BrdU provided at 5 weeks of age, examination a week later). (n>2, **P<0.01, *P<0.05 using the POE/WT genotype as reference; ^##P<0.01, ^#P<0.05 using the POE::Glucre genotype as reference)."}, "isolated islets": {"tested_on": "isolated islets", "experiment": "Perifusion analysis of isolated islets (insulin release)", "format": "cell-based, mouse", "details": "20 mM glucose + glucagon", "from_the_text": "[…] (2003). […] Obviously, a decrease in digestion time/collagenase concentrations would not have permitted proper islet isolation. We anyway perifused the islets and observed no difference in islet function of younger animals for all the genotypes analyzed. However, in older counterparts, we did detect a decrease in the glucose-stimulated insulin release, albeit not significant. It should be noticed that such a lack of significance might be attributed to the loss of oversized islets induced by experimental conditions."}, "POE::Glucre animals": {"tested_on": "POE::Glucre animals", "experiment": "Insulin challenge (overall responsiveness to insulin)", "format": "in vivo, mouse", "details": "older POE::Glucre animals; Actrapid insulin 0.75 mU/g subcutaneously", "method": "Note that 600 mg of glucose per dl of blood correspond to the maximal value detectable by our glucose monitoring system. […] However, due to the experimental conditions used, we noticed a disaggregating of the islets (Table 7) and therefore turned to an in vivo approach: (C) To determine the overall responsiveness to insulin, an insulin challenge was performed in animals of the indicated genotypes and ages. […] (D-F) Aiming to also assay β-cell function, we treated POE::Glucre animals of the indicated genotypes and ages with two insulin secretagogues, arginine and liraglutide (a long-acting GLP-1 analog—Novo Nordisk—Denmark).\nAnimals of the indicated genotypes were injected subcutaneously with Actrapid insulin (0.75 mU/g—Novo Nordisk—Denmark), intravenously with arginine (5 mg—Sigma) or subcutaneously with liraglutide (200 micrograms per kg—Novo Nordisk—Denmark). Following insulin challenge, blood glucose levels were measured as described in the main manuscript. Next to arginine challenge, at each time point, one animal per genotype was sacrificed immediately for serum insulin level determination using RIA (Linco). Lastly, in the case of liraglutide, the latter was injected 30 min prior to glucose challenge. At each time point, three animals per genotype were sacrificed immediately for serum glucose and insulin level determination."}, "[3]": {"details": "6 week old POE::Glucre + glucagon"}},
  "note": "Marks after values point to notes of the source that are not given here.",
  "data": [
    {"compound": "CN(N=O)C(=O)N[C@H]1C(O)O[C@H](CO)[C@@H](O)[C@@H]1O", "note": "(mixture of isomers) [STZ, streptozotocin]", "values": [
      {"measurement": "β-cell loss following STZ treatment", "setting": "β-cells", "value": "more than 95%"}
    ]},
    {"compound": "N=C(N)NCCC[C@H](N)C(=O)O", "note": "[arginine]", "values": [
      {"measurement": "Insulin secretion after arginine challenge", "setting": "POE::Glucre β-cells", "value": "able to elicit an insulin secretion"}
    ]},
    {"compound": "glucagon", "values": [
      {"measurement": "Arx transcript (real time RT-PCR)", "setting": "POE::Glucre pancreata [1]", "value": "15 ± 10", "unit": "%"},
      {"measurement": "Glucagon transcript (real time RT-PCR)", "setting": "POE::Glucre pancreata [1]", "value": "18 ± 9", "unit": "%"},
      {"measurement": "Insulin transcript (real time RT-PCR)", "setting": "POE::Glucre pancreata [1]", "value": "285 ± 52", "unit": "%"},
      {"measurement": "Ngn3 transcript (real time RT-PCR)", "setting": "POE::Glucre pancreata [1]", "value": "475 ± 81", "unit": "%"},
      {"measurement": "Nkx6.1 transcript (real time RT-PCR)", "setting": "POE::Glucre pancreata [1]", "value": "183 ± 20", "unit": "%"},
      {"measurement": "Pax4 transcript (real time RT-PCR)", "setting": "POE::Glucre pancreata [1]", "value": "555 ± 91", "unit": "%"},
      {"measurement": "Pdx1 transcript (real time RT-PCR)", "setting": "POE::Glucre pancreata [1]", "value": "279 ± 62", "unit": "%"},
      {"measurement": "Reg3b transcript (real time RT-PCR)", "setting": "POE::Glucre pancreata [1]", "value": "434 ± 63", "unit": "%"},
      {"measurement": "Islet size", "setting": "POE::Glucre pancreata [2]; 3-week-old POE::Pdx1Cre, POE::Glucre, POE::Pax6cre mice injected twice daily with glucagon during three weeks, vs controls", "value": "significant decrease in islet size"},
      {"measurement": "Glucagon-positive cell count", "setting": "POE::Glucre pancreata [2]; [3]", "value": "6 ± 4**^# per square centimetre"},
      {"measurement": "Insulin-positive cell count", "setting": "POE::Glucre pancreata [2]; [3]", "value": "394 ± 132**^## per square centimetre"},
      {"measurement": "BrdU (1 week) labelled cell count", "setting": "POE::Glucre pancreata [2]; 6 week old POE::Glucre + glucagon, BrdU at 5 weeks of age, examination a week later", "value": "28 ± 7^# per square centimetre"},
      {"measurement": "Ngn3-positive cell count", "setting": "POE::Glucre pancreata [2]; 6 week old POE::Glucre + glucagon, count indicative (high background)", "value": "38 ± 11^# per square centimetre"},
      {"measurement": "% of insulin released reported to the total insulin cell content/2 h", "setting": "isolated islets; 3-week old Control islets", "value": "8.9 ± 1.1", "unit": "%"},
      {"measurement": "% of insulin released reported to the total insulin cell content/2 h", "setting": "isolated islets; 3-week old POE::Glucre islets", "value": 10.6, "unit": "%"},
      {"measurement": "% of insulin released reported to the total insulin cell content/2 h", "setting": "isolated islets; 12-week old Control islets", "value": "9.5 ± 0.8", "unit": "%"},
      {"measurement": "% of insulin released reported to the total insulin cell content/2 h", "setting": "isolated islets; 12-week old POE::Glucre islets", "value": "6.6 ± 1.2", "unit": "%"}
    ]},
    {"compound": "insulin: Actrapid insulin, Novo Nordisk, Denmark", "values": [
      {"measurement": "Glycemia after insulin challenge", "setting": "POE::Glucre animals", "value": "did not observe any significant modification of the glycemia"}
    ]}
  ]
}
